Data published in patent publication US20100093748A1, “SUBSTITUTED PIPERIDINES HAVING PROTEIN KINASE INHIBITING ACTIVITY” (ASTEX THERAPEUTICS LIMITED, priority 2006, published 2010).

System: phosphorylation of Serine-9 residue in Glycogen Synthase Kinase-3beta as surrogate marker of cellular PKB (Akt) activity
Assay: In vitro MDA-MB-468 human breast adenocarcinoma GSK-3 phosphorylation assay
Format: cell-based
Conditions: MDA-MB-468 cells, 2 hours compound incubation, mean IC50, read-out: Cell pGSK3b IC50
From the text: This assay determines the ability of test compounds to inhibit phosphorylation of Serine-9 residue in Glycogen Synthase Kinase-3beta (GSK-313) as a surrogate marker of cellular PKB (Akt) activity, as assessed using Acumen Explorer Fluorescent Plate-Reader technology. A MDA-MB-468 human breast adenocarcinoma cell line (LGC Promochem, Teddington, Middlesex, UK, Catalogue No. HTB-132) was routinely maintained in Dulbecco's modified Eagle's growth medium (DMEM; Invitrogen Limited, Paisley, UK Catalogue No. 11966-025) containing 10% heat-inactivated foetal calf serum (FCS; Sigma, Poole, Dorset, UK, Catalogue No. F0392) and 1% L-glutamine (Gibco, Catalogue No. 25030-024) at 37° C. with 5% CO2 up to a confluency of 70-90%.
For the phosphorylation assay, the cells were detached from the culture flask using Trypsin-EDTA (Invitrogen Limited, Catalogue No. 25300-062) and seeded into the wells of a black transparent-bottom Corning Costar Polystyrene 96 well plate (Fisher Scientific UK, Loughborough, Leicestershire, UK; Catalogue No. 3904 and DPS-130-020K) at a density of 5000 cells per well in 100 μl of complete growth media. The cells were incubated overnight at 37° C. with 5% CO2 to allow them to adhere.
On day 2, the cells were treated with test compounds and incubated for 2 hours at 37° C. with 5% CO2. Test compounds were prepared as 10mM stock solutions in DMSO and dosed directly to required concentration into test wells using non-contact (acoustic dispensing of multiple 2.5 nl droplets directly into assay wells) ECHO dosing technology (Labcyte Inc Sunnyvale, Calif., USA). Each plate contained control wells without test compound.
20 μl of fixing buffer (Phosphate Buffered Saline (PBS) containing 10% formaldehyde; Sigma; Catalogue No. F1635) was then added to each well to give a final well concentration 1.6%. Plates were then incubated for 30 minutes at room temperature prior to the fixative being removed. Each well was washed once with 250 μl of PBS and then 50 μl PBS added to each well. PBS was then aspirated and cells permeabilised and blocked by incubating each well with 50 μl of permeabilisation/blocking buffer (PBS containing 0.5% Tween 20 (Sigma; Catalogue No. P5927) and 5% Marvel Milk Powder (Andrews Pharmacy Ltd, Macclesfield, Cheshire, UK; Catalogue No. APC100199)) for 1 hour at room temperature prior to staining.
Following removal of Perm/Block buffer, 50 μl of primary anti-phospho-GSK-3β antibody (Cell Signalling Technology (New England Biolabs (Uk) Ltd.), Hitchin, Hertfordshire, UK; Catalogue No.9336 diluted 1:400 in Blocking buffer (PBS containing 5% Marvel and 0.05% Tween/Polysorbate 20) was added to each well and incubated overnight at 4° C.
Each well was washed three times in 250 μl of wash buffer (PBS containing 0.05% polysorbate 20), and cells incubated for 1 hour at room temperature with 50 μl of secondary fluorescently-labelled anti-rabbit Alexa Fluor 488 antibody (Molecular Probes, Invitrogen Limited, Catalogue No. A11008) diluted 1:750 in blocking buffer. Plates were washed three times in 250 μl of wash buffer and stored containing 50 μl of PBS at 4° C. until required.
Plates were analysed using an Acumen Explorer Plate-reader to quantify level of fluorescent signal that represents quantity of phosphorylated-GSK-313.
IC50 calculation—IC50 is the concentration of compound required to give 50% effect over the range of activity affected by the compound, between maximum (no compound) and minimum (excess level of compound) response control data. IC50 values were determined by fitting background corrected, dose response assay data to a 4 parameter logistic curve fit equation model with the minimum response set to zero. This was done using an in-house developed algorithm within the Origin graphing software package (OriginLab Corporation, Northampton, Mass., USA). […]

IC50 [nM] | SMILES
62 | NCC1(c2nc3cc(Cl)ccc3[nH]2)CCN(c2ncnc3[nH]ccc23)CC1 [Example 67B, (4-(5-chloro-1H-benzo[d]imidazol-2-yl)-1-(7H-pyrrolo[2,3-d]pyrimidin-4-yl)piperidin-4-yl)methanamine]
460 | NC1(c2nc3cc(Br)ccc3[nH]2)CCN(c2ncnc3[nH]ccc23)CC1 [Example 68B, 4-(5-bromo-1H-benzo[d]imidazol-2-yl)-1-(7H-pyrrolo[2,3-d]pyrimidin-4-yl)piperidin-4-amine]
2400 | NC1(c2nc3cc(-c4ccccc4)ccc3[nH]2)CCN(c2ncnc3[nH]ccc23)CC1 [Example 68D, 4-(5-phenyl-1H-benzo[d]imidazol-2-yl)-1-(7H-pyrrolo[2,3-d]pyrimidin-4-yl)piperidin-4-amine]
1600 | NC1(c2nc3cc(-c4ccoc4)ccc3[nH]2)CCN(c2ncnc3[nH]ccc23)CC1 [Example 69, 4-(5-furan-3-yl-1H-benzimidazol-2-yl)-1-(7H-pyrrolo[2,3-d]pyrimidin-4-yl)piperidin-4-amine]
1600 | NC1(c2nc3cc(-c4ccncc4)ccc3[nH]2)CCN(c2ncnc3[nH]ccc23)CC1 [Example 70, 4-(5-pyridin-4-yl-1H-benzimidazol-2-yl)-1-(7H-pyrrolo[2,3-d]pyrimidin-4-yl)piperidin-4-amine]
2500 | COc1ccccc1-c1ccc2[nH]c(C3(N)CCN(c4ncnc5[nH]ccc45)CC3)nc2c1 [Example 71, 4-[5-(2-methoxyphenyl)-1H-benzimidazol-2-yl]-1-(7H-pyrrolo[2,3-d]pyrimidin-4-yl)piperidin-4-amine]
3000 | NC1(c2nc3cc(-c4ccco4)ccc3[nH]2)CCN(c2ncnc3[nH]ccc23)CC1 [Example 72]
3300 | COc1ccc(-c2ccc3[nH]c(C4(N)CCN(c5ncnc6[nH]ccc56)CC4)nc3c2)cc1 [Example 73, 4-[5-(4-methoxyphenyl)-1H-benzimidazol-2-yl]-1-(7H-pyrrolo[2,3-d]pyrimidin-4-yl)piperidin-4-amine]
3700 | Cn1cc(-c2ccc3[nH]c(C4(N)CCN(c5ncnc6[nH]ccc56)CC4)nc3c2)cn1 [Example 74, 4-[5-(1-methylpyrazol-4-yl)-1H-benzimidazol-2-yl]-1-(7H-pyrrolo[2,3-d]pyrimidin-4-yl)piperidin-4-amine]
5100 | CS(=O)(=O)c1cccc(-c2ccc3[nH]c(C4(N)CCN(c5ncnc6[nH]ccc56)CC4)nc3c2)c1 [Example 75, 4-[5-(3-methylsulfonylphenyl)-1H-benzimidazol-2-yl]-1-(7H-pyrrolo[2,3-d]pyrimidin-4-yl)piperidin-4-amine]
6400 | COc1cccc(-c2ccc3[nH]c(C4(N)CCN(c5ncnc6[nH]ccc56)CC4)nc3c2)c1 [Example 76, 4-[5-(3-methoxyphenyl)-1H-benzimidazol-2-yl]-1-(7H-pyrrolo[2,3-d]pyrimidin-4-yl)piperidin-4-amine]
12000 | NC1(c2nc3cc(-c4cccnc4)ccc3[nH]2)CCN(c2ncnc3[nH]ccc23)CC1 [Example 77, 4-(5-pyridin-3-yl-1H-benzimidazol-2-yl)-1-(7H-pyrrolo[2,3-d]pyrimidin-4-yl)piperidin-4-amine]
16000 | CS(=O)(=O)c1ccc(-c2ccc3[nH]c(C4(N)CCN(c5ncnc6[nH]ccc56)CC4)nc3c2)cc1 [Example 78, 4-[5-(4-methylsulfonylphenyl)-1H-benzimidazol-2-yl]-1-(7H-pyrrolo[2,3-d]pyrimidin-4-yl)piperidin-4-amine]
85 | NC1(c2nc3c(-c4cccnc4)cccc3[nH]2)CCN(c2ncnc3[nH]ccc23)CC1 [Example 79]
64 | COc1ccccc1-c1cccc2[nH]c(C3(N)CCN(c4ncnc5[nH]ccc45)CC3)nc12 [Example 80, 4-[4-(2-methoxyphenyl)-1H-benzimidazol-2-yl]-1-(7H-pyrrolo[2,3-d]pyrimidin-4-yl)piperidin-4-amine]
140 | COc1cccc(-c2cccc3[nH]c(C4(N)CCN(c5ncnc6[nH]ccc56)CC4)nc23)c1 [Example 81, -[4-(3-methoxyphenyl)-1H-benzimidazol-2-yl]-1-(7H-pyrrolo[2,3-d]pyrimidin-4-yl)piperidin-4-amine]
120 | COc1ccc(-c2cccc3[nH]c(C4(N)CCN(c5ncnc6[nH]ccc56)CC4)nc23)cc1 [Example 82, -[4-(4-methoxyphenyl)-1H-benzimidazol-2-yl]-1-(7H-pyrrolo[2,3-d]pyrimidin-4-yl)piperidin-4-amine]
47 | CS(=O)(=O)c1ccc(-c2cccc3[nH]c(C4(N)CCN(c5ncnc6[nH]ccc56)CC4)nc23)cc1 [Example 83, 4-{4-[4-(methylsulfonyl)phenyl]-1H-benzimidazol-2-yl}-1-(7H-pyrrolo[2,3-d]pyrimidin-4-yl)piperidin-4-amine]
350 | NC1(c2nc3c(Br)cccc3[nH]2)CCN(c2ncnc3[nH]ccc23)CC1 [Example 85, 4-(7-Bromo-1H-benzo[d]imidazol-2-yl)-1-(7H-pyrrolo[2,3-d]pyrimidin-4-yl)piperidin-4-amine]
130 | Cn1cc(-c2cccc3[nH]c(C4(N)CCN(c5ncnc6[nH]ccc56)CC4)nc23)cn1 [Example 86, 4-(4-(1-Methyl-1H-pyrazol-4-yl)-1H-benzo[d]imidazol-2-yl)-1-(7H-pyrrolo[2,3-d]pyrimidin-4-yl)piperidin-4-amine]
220 | NC1(c2nc3c(-c4ccco4)cccc3[nH]2)CCN(c2ncnc3[nH]ccc23)CC1 [Example 87, 4-[7-(2-furyl)-1H-benzimidazol-2-yl]-1-(7H-pyrrolo[2,3-d]pyrimidin-4-yl)piperidin-4-amine]
52 | NC1(c2nc3c(-c4ccoc4)cccc3[nH]2)CCN(c2ncnc3[nH]ccc23)CC1 [Example 88, 4-[7-(3-furyl)-1H-benzimidazol-2-yl]-1-(7H-pyrrolo[2,3-d]pyrimidin-4-yl)piperidin-4-amine]
81 | NCC1(c2nc3cc(Br)ccc3[nH]2)CCN(c2ncnc3[nH]ccc23)CC1 [Example 89E, (4-(5-Bromo-1H-benzo[d]imidazol-2-yl)-1-(7H-pyrrolo[2,3-d]pyrimidin-4-yl)piperidin-4-yl)methanamine]
52 | NC1(c2nc3c(-c4cncnc4)cccc3[nH]2)CCN(c2ncnc3[nH]ccc23)CC1 [Example 91, 4-(4-pyrimidin-5-yl-1H-benzimidazol-2-yl)-1-(7H-pyrrolo[3,2-e]pyrimidin-4-yl)piperidin-4-amine]
33 | NC1(c2nc3c(-c4ccncc4)cccc3[nH]2)CCN(c2ncnc3[nH]ccc23)CC1 [Example 92, 4-(4-pyridin-4-yl-1H-benzimidazol-2-yl)-1-(7H-pyrrolo[3,2-e]pyrimidin-4-yl)piperidin-4-amine]
250 | NC1(c2nc3c(-c4cn[nH]c4)cccc3[nH]2)CCN(c2ncnc3[nH]ccc23)CC1 [Example 93, 4-[4-(1H-pyrazol-4-yl)-1H-benzimidazol-2-yl]-1-(7H-pyrrolo[3,2-e]pyrimidin-4-yl)piperidin-4-amine]
47 | NC1(c2nc3c(-c4cccc(S(N)(=O)=O)c4)cccc3[nH]2)CCN(c2ncnc3[nH]ccc23)CC1 [Example 94, 3-[2-[4-amino-1-(7H-pyrrolo[3,2-e]pyrimidin-4-yl)piperidin-4-yl]-1H-benzimidazol-4-yl]benzenesulfonamide]
49 | CS(=O)(=O)c1cccc(-c2cccc3[nH]c(C4(N)CCN(c5ncnc6[nH]ccc56)CC4)nc23)c1 [Example 95, 4-[4-(3-methylsulfonylphenyl)-1H-benzimidazol-2-yl]-1-(7H-pyrrolo[3,2-e]pyrimidin-4-yl)piperidin-4-amine]
